The values below come from patent publication US12129246B1, “Hydroquinazoline derivatives for the treatment of a disease or disorder” (Novartis AG, priority 2023, dated 2024).

Read-outs that look alike come from different tables or passages of the source.

One experiment addresses monkey NPR1 (Macaca fascicularis, UniProt A0A7N9DBT9). The experiment can be described thus: Cellular cGMP production assay, monkey NPR1 expressing CHO-K1 cells (CisBio HTRF). The class given is cell-based. The note with it: for Monkey NPR1 Amax (% of ANP): maximum cGMP production as percentage of the maximum cGMP produced with ANP. Put shortly:
(§1)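 CHO-K1 cells expressing human or cynomolgus NPR1 treated with compound (12-point, 3-fold dilutions from 30 μM top) in PBS+0.1% BSA with 1 mM IBMX, 30 min at 37° C. After lysis, cGMP quantified by HTRF competition (cGMP-d2/anti-cGMP-cryptate, 1 h RT, 665 nm emission) against a calibrator standard curve.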
(In general: In TR-FRET formats the signal depends on donor and acceptor labels being close together.)

Another experiment has as its target T1, human NPR1 (Homo sapiens, UniProt P16066).
T1 construct: host or cells: CHO-K1
T1 sequence (P16066 33-1061): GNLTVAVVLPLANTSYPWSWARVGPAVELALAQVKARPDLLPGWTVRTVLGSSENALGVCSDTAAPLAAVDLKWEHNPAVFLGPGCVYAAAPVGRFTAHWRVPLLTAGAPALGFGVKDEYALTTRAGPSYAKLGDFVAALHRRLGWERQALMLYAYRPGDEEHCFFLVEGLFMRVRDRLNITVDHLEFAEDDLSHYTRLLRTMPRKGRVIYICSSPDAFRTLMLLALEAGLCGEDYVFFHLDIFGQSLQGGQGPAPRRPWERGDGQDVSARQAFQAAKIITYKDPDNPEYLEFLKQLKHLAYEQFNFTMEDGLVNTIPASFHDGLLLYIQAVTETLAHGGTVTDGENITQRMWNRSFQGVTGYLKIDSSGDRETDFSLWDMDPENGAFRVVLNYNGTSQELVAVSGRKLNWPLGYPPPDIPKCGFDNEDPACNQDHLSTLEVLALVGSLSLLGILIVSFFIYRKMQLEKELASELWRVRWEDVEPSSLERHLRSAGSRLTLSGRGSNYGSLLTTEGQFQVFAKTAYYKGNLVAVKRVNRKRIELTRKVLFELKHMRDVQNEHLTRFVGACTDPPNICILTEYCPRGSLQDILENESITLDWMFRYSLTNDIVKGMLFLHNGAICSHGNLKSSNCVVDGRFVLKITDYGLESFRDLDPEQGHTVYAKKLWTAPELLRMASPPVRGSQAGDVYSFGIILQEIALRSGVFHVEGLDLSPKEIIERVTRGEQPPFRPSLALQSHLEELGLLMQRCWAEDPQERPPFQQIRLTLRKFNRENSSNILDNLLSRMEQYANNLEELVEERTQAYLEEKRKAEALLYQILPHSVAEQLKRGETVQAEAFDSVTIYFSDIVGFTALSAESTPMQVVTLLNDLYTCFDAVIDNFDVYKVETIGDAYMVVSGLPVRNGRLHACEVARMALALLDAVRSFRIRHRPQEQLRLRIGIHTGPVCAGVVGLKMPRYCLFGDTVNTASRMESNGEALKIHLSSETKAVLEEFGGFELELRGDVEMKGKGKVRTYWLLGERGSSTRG
Briefly: Cellular cGMP production assay, human NPR1 expressing CHO-K1 cells (CisBio HTRF). It is filed as cell-based. Particulars: for AC50: cGMP production, 30 min at 37° C., 12-point dose-response from 30 μM; for Human NPR1 Amax (% of ANP): maximum cGMP production as percentage of the maximum cGMP produced with ANP. The method in brief: as §1

The mark [1] stands for this setting: cGMP production, monkey NPR1 CHO-K1 cells, 30 min at 37° C., 12-point dose-response from 30 μM, read-out: Monkey NPR1 AC50.

Sequence of monkey NPR1 (A0A7N9DBT9 entry or part of it): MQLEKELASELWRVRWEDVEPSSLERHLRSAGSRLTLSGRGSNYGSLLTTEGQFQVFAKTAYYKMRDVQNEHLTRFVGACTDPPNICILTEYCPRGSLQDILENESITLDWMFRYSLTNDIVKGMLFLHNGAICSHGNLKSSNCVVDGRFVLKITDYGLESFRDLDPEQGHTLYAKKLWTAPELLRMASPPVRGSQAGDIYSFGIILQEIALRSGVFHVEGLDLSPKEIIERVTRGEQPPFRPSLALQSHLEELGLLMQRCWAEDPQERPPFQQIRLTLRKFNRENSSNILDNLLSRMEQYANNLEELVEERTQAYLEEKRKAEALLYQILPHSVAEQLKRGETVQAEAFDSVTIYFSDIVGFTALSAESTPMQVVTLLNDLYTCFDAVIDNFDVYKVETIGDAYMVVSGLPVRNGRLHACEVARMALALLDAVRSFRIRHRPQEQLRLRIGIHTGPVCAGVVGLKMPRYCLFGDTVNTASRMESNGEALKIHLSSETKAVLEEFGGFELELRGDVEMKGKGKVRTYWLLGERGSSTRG

What is called AC50 is the concentration giving half of the maximal activity seen. For the molecule `CC[C@@H](Nc1nc2c(c(N[C@@H](CN3CC4CCC3C4)c3ccc(F)cc3)n1)C[C@H](c1ccccc1)CC2)[C@H]1CC[C@H](C(=O)O)CC1` (stereo partly drawn) [Compound 86, (1R,4r)-4-((1R)-1-(((6R)-4-(((1R)-2-(2-azabicyclo[2.2.1]heptan-2-yl)-1-(4-fluorophenyl)ethyl)amino)-6-phenyl-5,6,7,8-tetrahydroquinazolin-2-yl)amino)propyl)cyclohexane-1-carboxylic acid], the half-maximal activity concentration (AC50) on monkey NPR1 (setting [1]) worked out at 192 nM; on human NPR1, 286 nM. In addition, on monkey NPR1 (monkey NPR1 CHO-K1 cells), the “Monkey NPR1 Amax (% of ANP)” value is 92.318 % of ANP. Besides, the “Human NPR1 Amax (% of ANP)” value at human NPR1 is listed as 101.050 % of ANP.
As to `CC[C@@H](Nc1nc2c(c(N[C@@H](CN3CC4CCC3C4)c3cnn(C)c3)n1)C[C@H](c1ccccc1)CC2)[C@H]1CC[C@H](C(=O)O)CC1` (stereo partly drawn) [Compound 58, (1R,4r)-4-((1R)-1-(((6R)-4-(((1R)-2-(2-azabicyclo[2.2.1]heptan-2-yl)-1-(1-methyl-1H-pyrazol-4-yl)ethyl)amino)-6-phenyl-5,6,7,8-tetrahydroquinazolin-2-yl)amino)propyl)cyclohexane-1-carboxylic acid], the AC50 at monkey NPR1 (setting [1]) worked out at 149 nM. Further, the “Monkey NPR1 Amax (% of ANP)” value at monkey NPR1 (monkey NPR1 CHO-K1 cells) is given as 95.422 % of ANP. On human NPR1, the half-maximal activity concentration (AC50) came to 201 nM and the “Human NPR1 Amax (% of ANP)” value is listed as 99.715 % of ANP.
As to `CC[C@@H](Nc1nc2c(c(N[C@@H](CN3CCCC(F)(F)CC3)c3cnn(CC)c3)n1)C[C@H](c1ccccc1)CC2)[C@H]1CC[C@H](C(=O)O)CC1` [Compound 137, (1R,4r)-4-((R)-1-(((R)-4-(((R)-2-(4,4-difluoroazepan-1-yl)-1-(1-ethyl-1H-pyrazol-4-yl)ethyl)amino)-6-phenyl-5,6,7,8-tetrahydroquinazolin-2-yl)amino)propyl)cyclohexane-1-carboxylic acid], the AC50 came to 379 nM on monkey NPR1 (setting [1]) and 840 nM on human NPR1. The “Monkey NPR1 Amax (% of ANP)” value at monkey NPR1 (monkey NPR1 CHO-K1 cells) was 99.351 % of ANP. Besides, the “Human NPR1 Amax (% of ANP)” value on human NPR1 is reported as 95.603 % of ANP.
Molecule `CC[C@@H](N(C)c1nc2c(c(N[C@@H](CN3C4CCCC3CCC4)c3cnn(C)c3)n1)C[C@](C)(c1ccccc1)CC2)C12CC(C(=O)O)(C1)C2` [Compound 27, 3-((R)-1-(((R)-4-(((R)-2-((1S,5S)-9-azabicyclo[3.3.1]nonan-9-yl)-1-(1-methyl-1H-pyrazol-4-yl)ethyl)amino)-6-methyl-6-phenyl-5,6,7,8-tetrahydroquinazolin-2-yl)(methyl)amino)propyl)bicyclo[1.1.1]pentane-1-carboxylic acid] returned an AC50 on monkey NPR1 of 137 nM. In addition, the “Monkey NPR1 Amax (% of ANP)” value on monkey NPR1 (monkey NPR1 CHO-K1 cells) was 102.654 % of ANP. In addition, at human NPR1, half-maximal activity (AC50) was put at 137 nM and the “Human NPR1 Amax (% of ANP)” value is recorded as 92.458 % of ANP.
As to `CC[C@H]([C@H]1CC[C@H](CC(=O)O)CC1)N(C)c1nc2c(c(N[C@@H](CN3CCC[C@H](C)C3)c3cnn(C)c3)n1)C[C@H](c1cccc(F)c1)CC2` [Compound 39, 2-((1R,4r)-4-((R)-1-(((R)-6-(3-fluorophenyl)-4-(((R)-1-(1-methyl-1H-pyrazol-4-yl)-2-((S)-3-methylpiperidin-1-yl)ethyl)amino)-5,6,7,8-tetrahydroquinazolin-2-yl)(methyl)amino)propyl)cyclohexyl)acetic acid], the concentration at half-maximal activity (AC50) at monkey NPR1 (setting [1]) was found to be 102 nM. For the same molecule, on monkey NPR1 (monkey NPR1 CHO-K1 cells), the “Monkey NPR1 Amax (% of ANP)” value is 97.588 % of ANP. On human NPR1, the concentration at half-maximal activity (AC50) was 162 nM and the “Human NPR1 Amax (% of ANP)” value is 100.189 % of ANP.
As for `CC[C@H]([C@H]1CC[C@H](C(=O)O)CC1)N(C)c1nc2c(c(N[C@@H](CN3CCC[C@H](C)C3)c3cnn(C)c3)n1)C[C@@H](c1ccccc1)CC2` [Compound 101, (1R,4r)-4-((R)-1-(methyl((S)-4-(((R)-1-(1-methyl-1H-pyrazol-4-yl)-2-((S)-3-methylpiperidin-1-yl)ethyl)amino)-6-phenyl-5,6,7,8-tetrahydroquinazolin-2-yl)amino)propyl)cyclohexane-1-carboxylic acid], at monkey NPR1 (setting [1]), the concentration at half-maximal activity (AC50) came out at 335 nM. In addition, the “Monkey NPR1 Amax (% of ANP)” value at monkey NPR1 (monkey NPR1 CHO-K1 cells) is listed as 101.476 % of ANP. On human NPR1, the AC50 is 377 nM and the “Human NPR1 Amax (% of ANP)” value is recorded as 93.777 % of ANP.
Consider `CC[C@H]([C@H]1CC[C@H](C(=O)O)CC1)N(C)c1nc2c(c(N[C@@H](CN3CCCC(C)(F)C3)c3cnn(C)c3)n1)C[C@H](c1ccccc1)CC2` (stereo partly drawn) [Compound 144, (1R,4r)-4-((1R)-1-(((6R)-4-(((1R)-2-(3-fluoro-3-methylpiperidin-1-yl)-1-(1-methyl-1H-pyrazol-4-yl)ethyl)amino)-6-phenyl-5,6,7,8-tetrahydroquinazolin-2-yl)(methyl)amino)propyl)cyclohexane-1-carboxylic acid], for which the AC50 on monkey NPR1 (setting [1]) came to 873 nM. The “Monkey NPR1 Amax (% of ANP)” value at monkey NPR1 (monkey NPR1 CHO-K1 cells) was 152.392 % of ANP. Besides, on human NPR1, the activity was half-maximal at 985 nM (AC50) and the “Human NPR1 Amax (% of ANP)” value is recorded as 114.314 % of ANP.
As for `CC[C@H]([C@H]1CC[C@H](C(=O)O)CC1)N(C)c1nc2c(c(N[C@@H](CN3CCCCC3)c3cnn(CC4CC4)c3)n1)C[C@H](c1ccccc1)CC2` [Compound 147, (1R,4r)-4-((R)-1-(((R)-4-(((R)-1-(1-(cyclopropylmethyl)-1H-pyrazol-4-yl)-2-(piperidin-1-yl)ethyl)amino)-6-phenyl-5,6,7,8-tetrahydroquinazolin-2-yl)(methyl)amino)propyl)cyclohexane-1-carboxylic acid], the AC50 on monkey NPR1 (setting [1]) came to 671 nM. For the same molecule, the “Monkey NPR1 Amax (% of ANP)” value on monkey NPR1 (monkey NPR1 CHO-K1 cells) is listed as 101.537 % of ANP. Also, at human NPR1, the activity was half-maximal at 1080 nM (AC50) and the “Human NPR1 Amax (% of ANP)” value is 97.612 % of ANP.
Taken in the same sequence, the figures for `CC[C@@H](Nc1nc2c(c(N[C@@H](CN3CCCC[C@@H]3C)c3cnn(C)c3)n1)C[C@H](c1ccccc1)CC2)[C@H]1CC[C@H](C(=O)O)CC1` [Compound 123, (1R,4r)-4-((R)-1-(((R)-4-(((R)-1-(1-methyl-1H-pyrazol-4-yl)-2-((S)-2-methylpiperidin-1-yl)ethyl)amino)-6-phenyl-5,6,7,8-tetrahydroquinazolin-2-yl)amino)propyl)cyclohexane-1-carboxylic acid] were 377 nM, 102.761 % of ANP, 592 nM and 103.006 % of ANP.
Consider `CC[C@@H](Nc1nc2c(c(N[C@@H](CN3CCCCC3)c3cnn(C)c3)n1)C[C@H](c1ccccc1)CC2)[C@H]1CC[C@H](C(=O)O)CC1` [Compound 56, (1R,4r)-4-((R)-1-(((R)-4-(((R)-1-(1-methyl-1H-pyrazol-4-yl)-2-(piperidin-1-yl)ethyl)amino)-6-phenyl-5,6,7,8-tetrahydroquinazolin-2-yl)amino)propyl)cyclohexane-1-carboxylic acid], for which the AC50 on monkey NPR1 (setting [1]) was 196 nM. In addition, the “Monkey NPR1 Amax (% of ANP)” value at monkey NPR1 (monkey NPR1 CHO-K1 cells) is 108.953 % of ANP. Further, on human NPR1, half-maximal activity (AC50) was put at 198 nM and the “Human NPR1 Amax (% of ANP)” value is listed as 102.955 % of ANP.
Molecule `CC[C@@H](Nc1nc2c(c(N[C@@H](CN3C4CCCC3CCC4)c3cnn(CC)c3)n1)C[C@@H](c1cccc(F)c1)CC2)[C@H]1CC[C@H](C(=O)O)CC1` [Compound 10, (1R,4r)-4-((R)-1-(((S)-4-(((R)-2-((1S,5S)-9-azabicyclo[3.3.1]nonan-9-yl)-1-(1-ethyl-1H-pyrazol-4-yl)ethyl)amino)-6-(3-fluorophenyl)-5,6,7,8-tetrahydroquinazolin-2-yl)amino)propyl)cyclohexane-1-carboxylic acid] displayed an AC50 at monkey NPR1 of 73 nM. For the same molecule, on monkey NPR1 (monkey NPR1 CHO-K1 cells), the “Monkey NPR1 Amax (% of ANP)” value is given as 97.058 % of ANP. Besides, at human NPR1, the AC50 came out at 91 nM and the “Human NPR1 Amax (% of ANP)” value is listed as 96.065 % of ANP.
Regarding `CC[C@@H](N(C)c1nc2c(c(N[C@@H](CN3CCC[C@H](CF)C3)c3cnn(C)c3)n1)C[C@](C)(c1ccccc1)CC2)C12CC(C(=O)O)(C1)C2` [Compound 12, 3-((R)-1-(((R)-4-(((R)-2-((S)-3-(fluoromethyl)piperidin-1-yl)-1-(1-methyl-1H-pyrazol-4-yl)ethyl)amino)-6-methyl-6-phenyl-5,6,7,8-tetrahydroquinazolin-2-yl)(methyl)amino)propyl)bicyclo[1.1.1]pentane-1-carboxylic acid], at monkey NPR1 (setting [1]), the AC50 was found to be 73 nM. The “Monkey NPR1 Amax (% of ANP)” value on monkey NPR1 (monkey NPR1 CHO-K1 cells) is 95.099 % of ANP. Moreover, on human NPR1, the concentration at half-maximal activity (AC50) amounted to 94 nM and the “Human NPR1 Amax (% of ANP)” value is recorded as 96.068 % of ANP.
